# Activity calls are given as the source filed them. No cut-off for these calls is given here.
# What was measured:
# [1] = AUClast in male ICR (CD-1) mouse at 5 mg/kg, iv by LC-MS/MS analysis; assay type: ADME, organism-based; settings: in vivo
# Mus musculus [2] = assay: Effect on TNF-alpha level in serum of DSS-induced acute ulcerative colitis male C57BL/6J mouse model at 0.2 to 5 mg/kg, po preadministered with DSS for 7 days followed by 3 days of drinking water and measured after 10 days of compound administration by ELISA; assay type: functional, organism-based; settings: dose 0.2-5 mg/kg, time 10.0 day
# Mus musculus [3] = assay: (§1) Antidiabetic activity in HFD-fed STZ-induced diabetic kidney disease male C57BL/6J mouse model assessed as reduction in LDL-C level in serum at 20 mg/kg fed with high fat diet for 4 weeks followed by STZ administration for 5 days and measured 6 weeks post compound administration via gavage; assay type: functional, organism-based
# [4] = Cmax in male ICR (CD-1) mouse at 20 mg/kg, po by LC-MS/MS analysis; assay type: ADME, organism-based; settings: in vivo
# BMDM [5] = assay: Inhibition of AIM2 inflammasome activation in LPS/Poly dA:dT-stimulated male C57BL/6J mouse BMDM cells assessed as inhibition of IL-1beta secretion pretreated with LPS followed by compound addition for 4 hrs and measured after 4 hrs of Poly dA:dT addition by ELISA; assay type: cell-based; settings: time 8.0 hrs
# [6] = Drug uptake in brain of male C57BL/6J mouse at 20 mg/kg, po administered as single dose and measured after 8 hrs by LC-MS/MS analysis; assay type: ADME, organism-based; settings: in vivo
# [7] = molecular target: Nlrp3/Pycard (Mus musculus) (UniProt Q8R4B8+Q9EPB4); assay: In vivo inhibition of NLRP3-ASC protein-protein interaction in HFD-fed STZ-induced diabetic kidney disease male C57BL/6J mouse model at 20 mg/kg fed with high fat diet for 4 weeks followed by STZ administration for 5 days and measured 6 weeks post compound administration via gavage by co-immunoprecipitation based Western blot analysis; assay type: functional, organism-based
# Mus musculus [8] = assay: (§2) Anti-inflammatory activity in LPS/ATP-induced acute peritonitis male C57BL/6J mouse model assessed as survival rate at 1 mg/kg, po preadministered with compound for 1 hrs followed by LPS addition for 2 hrs and further administered with ATP and measured 21 hrs post LPS administration relative to control; assay type: functional; settings: time 22 hrs
# [9] = Half-life in male ICR (CD-1) mouse at 20 mg/kg, po by LC-MS/MS analysis; assay type: ADME, organism-based; settings: in vivo
# Mus musculus [10] = assay: as §2, with “at 20” for “at 1”; assay type: functional; settings: time 22 hrs
# Mus musculus [11] = assay: Effect on HDL-C level in serum of HFD-fed STZ-induced diabetic kidney disease male C57BL/6J mouse model at 20 mg/kg fed with high fat diet for 4 weeks followed by STZ administration for 5 days and measured 6 weeks post compound administration via gavage; assay type: functional, organism-based
# Mus musculus [12] = assay: as §1, with “decrease” for “reduction”, “IL-1beta” for “LDL-C”, “gavage by ELISA” for “gavage”; assay type: functional, organism-based
# [13] = AUClast in male ICR (CD-1) mouse at 20 mg/kg, po by LC-MS/MS analysis; assay type: ADME, organism-based; settings: in vivo
# Mus musculus [14] = assay: Anti-colitis activity in DSS-induced acute ulcerative colitis male C57BL/6J mouse model assessed as improvement in stool consistency at 0.2 to 5 mg/kg, po preadministered with DSS for 7 days followed by 3 days of drinking water and measured after 10 days of compound administration; assay type: functional, organism-based; settings: dose 0.2-5 mg/kg, time 10.0 day
# [15] = Half-life in male ICR (CD-1) mouse at 5 mg/kg, iv by LC-MS/MS analysis; assay type: ADME, organism-based; settings: in vivo
# [16] = Inhibition of NLRP3 inflammasome activation in LPS/ATP-stimulated male C57BL/6J mouse BMDM cells assessed as inhibition of IL-1beta secretion […] for 4 hrs followed by compound administration for 30 mins and measured after 1 hrs of ATP addition by ELISA; assay type: cell-based
# BMDM [17] = assay: Inhibition of NLRP3 inflammasome activation at initiation phase in LPS/ATP-stimulated male C57BL/6J mouse BMDM cells assessed as inhibition of TNF-alpha secretion […] for 4 hrs followed by compound administration for 30 mins and measured after 1 hrs of ATP addition by ELISA; assay type: cell-based; settings: time 1.5 hrs
# Mus musculus [18] = assay: (§3) Anti-colitis activity in DSS-induced acute ulcerative colitis male C57BL/6J mouse model assessed as reduction in histologic severity score at 0.2 to 5 mg/kg, po preadministered with DSS for 7 days followed by 3 days of drinking water and measured after 10 days of compound administration; assay type: functional, organism-based; settings: dose 0.2-5 mg/kg, time 10.0 day
# [19] = Tmax in male ICR (CD-1) mouse at 20 mg/kg, po by LC-MS/MS analysis; assay type: ADME, organism-based; settings: in vivo
# BMDM [20] = assay: Inhibition of NLRC4 inflammasome activation in LPS/flagellin-stimulated male C57BL/6J mouse BMDM cells assessed as inhibition of IL-1beta secretion pretreated with LPS followed by compound addition for 4 hrs and measured after 2 hrs of Salmonella typhimurium flagellin addition by ELISA; assay type: cell-based; settings: time 6.0 hrs
# Mus musculus [21] = assay: as §3, with “crypt necrosis in colon” for “histologic severity score”, “administration by H and E staining based analysis” for “administration”; assay type: functional, organism-based; settings: dose 0.2-5 mg/kg, time 10.0 day
# Mus musculus [22] = assay: Effect on TNF-alpha level in serum of HFD-fed STZ-induced diabetic kidney disease male C57BL/6J mouse model at 20 mg/kg fed with high fat diet for 4 weeks followed by STZ administration for 5 days and measured 6 weeks post compound administration via gavage by ELISA; assay type: functional, organism-based
# [23] = Inhibition of NLRP3 inflammasome activation in human THP-1 cells assessed as inhibition of IL-1beta release; assay type: cell-based
# Mus musculus [24] = assay: Anti-colitis activity in DSS-induced acute ulcerative colitis male C57BL/6J mouse model assessed as increase in colon length at 0.2 to 5 mg/kg, po preadministered with DSS for 7 days followed by 3 days of drinking water and measured after 10 days of compound administration; assay type: functional, organism-based; settings: dose 0.2-5 mg/kg, time 10.0 day
# Mus musculus [25] = assay: Effect on TNF-alpha level in serum of LPS/ATP-induced acute peritonitis male C57BL/6J mouse model at 1 to 20 mg/kg, po preadministered with compound for 1 hrs followed by LPS addition for 2 hrs and measured 12 hrs post ATP administration by ELISA; assay type: functional, organism-based; settings: dose 1-20 mg/kg, time 13.0 hrs
# Mus musculus [26] = assay: Antidiabetic activity in HFD-fed STZ-induced diabetic kidney disease male C57BL/6J mouse model assessed as improvement of glucose tolerance at 20 mg/kg fed with high fat diet for 4 weeks followed by STZ administration for 5 days further administered with compound via gavage for 6 weeks and measured after 120 mins of glucose administration by OGTT; assay type: functional, organism-based; settings: time 60600.0 min
# Mus musculus [27] = assay: as §1, with “glomerular thickening” for “LDL-C level”, “kidney” for “serum”, “gavage by histological analysis” for “gavage”; assay type: functional, organism-based
# Mus musculus [28] = assay: Anti-colitis activity in DSS-induced acute ulcerative colitis male C57BL/6J mouse model assessed as reduction in fecal bleeding at 0.2 to 5 mg/kg, po preadministered with DSS for 7 days followed by 3 days of drinking water and measured after 10 days of compound administration; assay type: functional, organism-based; settings: dose 0.2-5 mg/kg, time 10.0 day
# Mus musculus [29] = assay: Anti-colitis activity in DSS-induced acute ulcerative colitis male C57BL/6J mouse model assessed as reduction in body weight loss at 5 mg/kg, po preadministered with DSS for 7 days followed by 3 days of drinking water and measured after 10 days of compound administration; assay type: functional, organism-based; settings: time 10.0 day
# Mus musculus [30] = assay: as §1, with “macrophage infiltration” for “LDL-C level”, “kidney” for “serum”, “gavage by F4/80 immunostaining based analysis” for “gavage”; assay type: functional, organism-based
# Nlrp3/Pycard (Mus musculus), sequence (Q8R4B8 whole entry, looked up): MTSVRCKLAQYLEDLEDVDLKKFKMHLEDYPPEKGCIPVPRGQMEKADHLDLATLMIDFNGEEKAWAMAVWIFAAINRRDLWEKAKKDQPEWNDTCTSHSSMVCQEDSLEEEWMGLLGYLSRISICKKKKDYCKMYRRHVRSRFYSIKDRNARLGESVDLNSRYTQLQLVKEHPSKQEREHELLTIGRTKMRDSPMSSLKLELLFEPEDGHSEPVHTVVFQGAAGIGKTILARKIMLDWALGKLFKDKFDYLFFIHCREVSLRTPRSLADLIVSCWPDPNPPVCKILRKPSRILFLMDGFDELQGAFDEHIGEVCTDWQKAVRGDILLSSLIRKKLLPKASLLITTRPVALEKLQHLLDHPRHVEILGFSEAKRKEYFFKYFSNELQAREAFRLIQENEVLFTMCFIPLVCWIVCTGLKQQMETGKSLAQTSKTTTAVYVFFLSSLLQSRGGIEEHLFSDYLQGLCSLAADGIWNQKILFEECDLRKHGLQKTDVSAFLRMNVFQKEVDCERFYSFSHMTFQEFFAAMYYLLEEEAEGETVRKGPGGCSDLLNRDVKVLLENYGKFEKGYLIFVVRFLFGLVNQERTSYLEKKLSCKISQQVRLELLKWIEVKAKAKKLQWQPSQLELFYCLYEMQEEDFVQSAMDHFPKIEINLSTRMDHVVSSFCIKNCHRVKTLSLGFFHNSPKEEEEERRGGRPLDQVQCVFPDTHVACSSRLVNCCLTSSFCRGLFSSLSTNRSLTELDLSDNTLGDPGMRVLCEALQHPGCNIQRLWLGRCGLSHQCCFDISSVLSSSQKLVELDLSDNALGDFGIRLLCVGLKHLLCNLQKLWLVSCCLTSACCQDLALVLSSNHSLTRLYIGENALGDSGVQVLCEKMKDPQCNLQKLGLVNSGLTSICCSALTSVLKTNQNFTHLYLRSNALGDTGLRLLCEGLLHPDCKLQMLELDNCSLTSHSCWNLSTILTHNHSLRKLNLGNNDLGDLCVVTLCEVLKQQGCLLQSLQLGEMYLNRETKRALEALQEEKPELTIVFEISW
# Nlrp3/Pycard (Mus musculus), sequence (Q9EPB4 whole entry, looked up): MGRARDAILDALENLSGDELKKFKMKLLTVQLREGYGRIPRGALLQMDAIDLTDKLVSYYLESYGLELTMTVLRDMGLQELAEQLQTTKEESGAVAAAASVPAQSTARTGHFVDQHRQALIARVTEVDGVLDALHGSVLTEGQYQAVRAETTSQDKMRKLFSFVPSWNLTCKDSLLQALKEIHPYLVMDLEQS
smiles,measurement,setting,value
CN1CCC(N(C)S(=O)(=O)NC(=O)Nc2c3c(cc4c2CCC4)CCC3)CC1,AUC(0-t),[1],14500 ng·h/mL
same,Activity,Mus musculus [2],inactive
same,Activity,Mus musculus [3],Active
same,Cmax,[4],35500 ng/mL
same,inhibition,BMDM [5],inactive
same,Drug uptake,[6],Not_active
same,inhibition,[7],Active
same,survival at 1 mg/kg,Mus musculus [8],75%
same,half-life,[9],2.7 h
same,survival at 20 mg/kg,Mus musculus [10],100%
same,Activity,Mus musculus [11],inactive
same,Activity,Mus musculus [12],Active
same,AUC(0-t),[13],57900 ng·h/mL
same,Activity,Mus musculus [14],Active
same,half-life,[15],3.63 h
same,IC50,[16],106 nM
same,inhibition,BMDM [17],inactive
same,Activity,Mus musculus [18],Active
same,Tmax,[19],0.33 h
same,inhibition,BMDM [20],inactive
same,Activity,Mus musculus [21],Active
same,Activity,Mus musculus [22],inactive
same,IC50,[23],23 nM
same,Activity,Mus musculus [24],inactive
same,Activity,Mus musculus [25],inactive
same,Activity,Mus musculus [26],inactive
same,Activity,Mus musculus [27],Active
same,Activity,Mus musculus [28],Active
same,Activity,Mus musculus [29],Active; Significant Difference Not Observed
same,Activity,Mus musculus [30],Active
